# Experiments:
# Type in all cases: cell-based
# human chondrocytes = assay: MTT test (Test 0), cell vitality; details: overnight incubation, 'likewise' = did not prove toxic
# Description: (§1) Human chondrocytes (Lonza, cat. N. CC-2550) derived from knee tissue were cultured in Chondrocyte Growth Medium (Lonza, cat. N. CC-3216) prepared according to the manufacturer's instructions with the addition of R3-insulin-like growth factor-1 [R3-IGF-1], human recombinant fibroblast growth factor beta [hrFGF-β], transferrin, insulin, foetal bovine serum [FBS] and gentamicin/amphotericin-B [GA]. The cells were maintained in an incubator at 37° C. and 5% CO2 and seeded every 3-4 days at a density of about 1×10^4 cells/cm^2.
# (§2) After about 16-20 hours of incubation, the cells were processed for the various tests.
# This colorimetric test is based on the transformation of the tetrazolium salt MTT (yellow) into formazan (violet), by the succinate-tetrazolium reductase system, which belongs to the mitochondrial respiratory chain and is active only in metabolically active cells. […] An insoluble colorant forms during this period, which, after dissolving by adding dissolution solution to the samples (10% SDS in 10 mM HCl) and after incubating overnight in an incubator, may be quantified by reading the absorbance of the samples at 595 nm (using 750 nm as reference wavelength). The measured absorbance correlates directly with the number of live cells.
# To exclude a possible toxic effect attributable to the chosen incubation protocol, the cell vitality was quantified by means of an MTT test. […]
# [1] = system: nuclear translocation of NF-kB in human chondrocytes; assay: Nuclear translocation of NF-kB (Test 1b), immunolabelling and confocal microscope; details: IL-1β about 20 hours
# Description: as §1, §2
# The chondrocytes were seeded onto 13 mm glass slides and, once they had reached confluence, were incubated overnight with the various treatments. […]
# Images of the samples thus prepared were acquired on a confocal microscope (TCS SPE UV, Leica Microsystems) and were analysed with the software ImageJ v1.47h (http://imagej.nih.gov/ij) for the quantification of the nuclear translocation of NF-kB (Noursadeghi M et al., Journal of Immunological Methods, 2008, vol. 329, pages 194-200). […] These masks were then applied to the original NF-kB signals to calculate the fluorescence intensity in the nucleus and in the cytoplasm from the histograms of the intensities created with ImageJ. The mean fluorescence intensity ratio between the nucleus and the cytoplasm was then calculated for each sample.
# [2] = system: TNFα production by human chondrocytes; assay: ELISA test (Test 1a), TNFα in culture medium
# Description: as §1, §2
# In the “sandwich” ELISA test, a 96-well plate is covered with a monoclonal antibody specific for a given cytokine. […] The addition of a sulfuric acid solution changes the colour of the solution from blue to yellow, blocking the development of the colour and allowing accurate reading of the absorbance of the samples at 450 nm.
# For the purposes of the treatment, the medium was harvested and stored at −80° C. until the time of use for the test. […] The concentrations of cytokines released into the culture medium were then expressed as pg of cytokine/mg of total protein of the sample. […]
# Release into the culture medium of the pro-inflammatory cytokines TNFα, IL-6 and IL-8 by the human chondrocytes was evaluated both in the absence and in the presence of stimulation with IL-1β for 16 hours. […]
compound,measurement,setting,value
Cc1ccc(-c2cc(C(F)(F)F)nn2-c2ccc(S(N)(=O)=O)cc2)cc1 [celecoxib],"toxicity to chondrocytes (MTT, cell vitality)",human chondrocytes; 10 μM,likewise for the incubation with the positive controls
same,effect on the translocation of NF-kB to the nucleus,[1]; celecoxib 10 μM,no significant effect
same,effect on the production of TNFα,[2]; 10 μM in the culture medium,no effect
O=C(O)Cc1ccccc1Nc1c(Cl)cccc1Cl [diclofenac],"toxicity to chondrocytes (MTT, cell vitality)",human chondrocytes; 100 μM,likewise for the incubation with the positive controls
same,effect on the translocation of NF-kB to the nucleus,[1]; diclofenac 100 μM,no significant effect
same,effect on the production of TNFα,[2]; 100 μM in the culture medium,no effect

# Reference: patent publication US10548937B2, “Composition for the treatment of arthropathies and osteoarthritis” (Kolinpharma S.p.A., priority 2014, dated 2020)
